Test results published in paper PMC7610391, “Photocatalytic proximity labelling of MCL-1 by a BH3 ligand” (Communications chemistry, 2019).
Entries after “also recorded” stand apart in the source; their conditions may differ.

Key:
[1] = target: T1, MCL-1/FITC-NOXA-B interaction (Homo sapiens, UniProt Q07820); test: Fluorescence anisotropy competition, MCL-1/FITC-NOXA-B; type: biochemical; conditions: [MCL-1] 75 nM, tracer FITC-NOXA-B 25 nM, Tris buffer pH 7.4, triplicate; printed as ≫; read-out: IC50 against MCL-1
T1 construct: Recombinant MCL-1_172–327 was expressed and purified as published previously; made in house

BCL-XL = target: T2, BCL-XL (Homo sapiens, UniProt Q07817, DEL27-82); test: Photolabelling of BCL-xL with Ac-RTA 4, ESI-MS; conditions: pH 7.4
T2 construct: made in house

MCL-1 [2] = target: T3, MCL-1 (Homo sapiens, UniProt Q07820); test: Photolabelling of recombinant MCL-1, ESI-MS
T3 construct: Recombinant MCL-1_172–327 was expressed and purified as published previously; made in house

MCL-1 [3] = target: T3, MCL-1; test: Pull-down of biotinylated MCL-1 with avidin-agarose beads; conditions: 20, 10 µM biotin-RTA 3, or 100 µM with excess label removed
Description: Pull-down of biotinylated MCL-1
The crude labelling mixture was incubated with avadin-agarose beads (50 µL) at r.t. for 2 hours with gentle agitation (input lanes 1-4 and their respective pull-down lanes 6-9). Note that for input lane 5/pull-down lane 10, excess biotin-RTA 3 was removed from the crude labelling mixture using a protein concentrator (10 kDa MWCO) prior to incubation with avidin-agarose beads. Following removal of the supernatant, the beads were washed twice with PBS (100 µL), then boiled at 90 °C for 10 mins in sample loading buffer to elute bound proteins. Samples were separated by SDS-PAGE: the gel (15% acrylamide) was run at a constant voltage of 180 V for 45 min, then the gel was stained with Coomassie Brilliant Blue (CBB) and the image obtained on a Molecular Imager ChemiDoc XRS.
Supplementary Figure 19: Isolation of biotinylated MCL-1 from crude labelling mixture through pull-down with avadin-agarose beads (CBB stained gel). Conditions: 5 µM MCL-1, 0-100 µM biotin-RTA 3, 1 µM Ru(II)(bpy)3-NOXA-B, 10 µM APS, 1 min irradiation, 50 mM […]
3 was used (lanes 7 and 8, respectively), in addition to when 100 µM biotin-RTA 3 was used and the excess label 3 was removed using a protein concentrator (lane 10). 50 µL avidin-agarose beads was used in pull-down experiments.

MCL-1 [4] = target: T3, MCL-1; test: Competition of Ru(II)(bpy)3-NOXA-B 1-mediated MCL-1 photolabelling, in-gel fluorescence; type: biochemical; conditions: 0-100 µM competitor; 5 µM MCL-1, 5 µM TAMRA-RTA 2, 1 µM 1, 10 µM APS, 1 min hν

T3 sequence (Q07820 172-327): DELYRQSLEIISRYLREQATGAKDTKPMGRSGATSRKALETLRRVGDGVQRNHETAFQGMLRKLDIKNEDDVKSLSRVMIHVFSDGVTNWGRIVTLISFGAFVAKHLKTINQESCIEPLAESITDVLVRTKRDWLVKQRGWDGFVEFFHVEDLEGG
T2 sequence (Q07817 with tags, fused parts or gaps DEL27-82, species assumed): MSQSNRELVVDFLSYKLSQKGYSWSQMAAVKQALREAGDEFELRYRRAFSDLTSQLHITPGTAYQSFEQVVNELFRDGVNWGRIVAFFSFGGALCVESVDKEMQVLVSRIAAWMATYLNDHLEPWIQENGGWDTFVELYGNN
T1 sequence (Q07820 172-327): as the sequence (Q07820 172-327) above

6b: variant Ac-BID sequence with key hot-spot residues exchanged (L90A and D95R) (EDIIRNIARHAAQVGRSXDRSIW; N-terminal acetyl; C-terminal amide; X18 = norleucine (Nle))
IC50 [1]: > 50 µM

[Ru+2].c1ccc(-c2ccccn2)nc1.c1ccc(-c2ccccn2)nc1.c1ccc(-c2ccccn2)nc1 [Ru(II)(bpy)3]
effect of photocatalyst concentration on BCL-xL labelling (BCL-XL): increased at higher concentrations of Ru(II)(bpy)3 | labelling of BCL-xL with Ac-RTA 4 (BCL-XL): small amounts of BCL-xL could be labelled | photolabelling efficiency of MCL-1 versus targeted catalyst 1 (MCL-1 [2]; 20 mol% Ru(II)(bpy)3, 50 μM Ac-RTA 4, 10 μM APS, 1 min irradiation, pH 7.4): labelling was less efficient

CN(C)c1ccc(NC(=O)CCCCCNC(=O)CCCCC2SCC3NC(=O)NC32)cc1 (stereo not drawn) [compound 3]
affinity purification of biotinylated MCL-1 (MCL-1 [3]): Biotinylated MCL-1 was pulled-down; also recorded: could be affinity-purified with avidin-agarose beads | background labelling with biotin-RTA 3 in the absence of 1 (MCL-1 [2]; 0 µM 1, 5 μM MCL-1, 5 µM biotin-RTA 3, 10 µM APS, 1 min hν): absence of background labelling | number of labels incorporated on MCL-1 (MCL-1 [2]; Ru(II)(bpy)3-NOXA-B 1-mediated, intact protein ESI-MS): single biotin labelling of MCL-1 | oxidation at irradiation times greater than 1 min (MCL-1 [2]; biotin-RTA 3 5 µM, 1 µM 1, 10 µM APS, 15 mins irradiation shown): higher conversion to oxidised protein species

CC[C@H](C)[C@H](NC(=O)[C@H](CCCNC(=N)N)NC(=O)[C@H](CCCNC(=N)N)NC(=O)[C@H](CC(C)C)NC(=O)[C@H](CCC(N)=O)NC(=O)[C@H](C)NC(=O)[C@H](C)NC(C)=O)C(=O)NCC(=O)N[C@@H](CC(=O)O)C(=O)N[C@@H](CCCCN)C(=O)N[C@H](C(=O)N[C@@H](CC(N)=O)C(=O)N[C@@H](CC(C)C)C(=O)N[C@@H](CCCNC(=N)N)C(=O)N[C@@H](CCC(N)=O)C(=O)N[C@@H](CCCCN)C(=O)N[C@@H](CC(C)C)C(=O)N[C@@H](CC(C)C)C(=O)N[C@@H](CC(N)=O)C(N)=O)C(C)C [compound 5]
inhibition of MCL-1 labelling by Ac-NOXA-B (MCL-1 [4]): did not completely abrogate labelling
